Data as given in paper PMC10244169, “Psychedelics promote plasticity by directly binding to BDNF receptor TrkB” (Nature Neuroscience, 2023).

How the values were obtained:
[1] = system: spine density of neuronal cultures; test: Spinogenesis in mature neuronal cultures (WT and Y433F^+/−); type: cell-based, mouse; design: 6d: Mean (spinogenesis, spine density) / 6e: Mean (spinogenesis, spine density): unit not given here; details: for 6e: Mean (spinogenesis, spine density): Vehicle:Vehicle mean 7.05
Method: Spinogenesis experiments were performed similarly to previous studies[12],[13] with modifications. […] In a separate set of experiments to study the effects of extracellular BDNF and 5-HT2A activation, cultures were also pretreated for 10 min with TrkB.FC (200 ng ml^−1) or M100907 (100 nM), respectively. TrkB.FC and M100907 remained in the medium for the rest of the experiment. Twenty-four hours later, coverslips were fixed with 4% PFA, washed with PBS, incubated with blocking buffer (0.1% Triton X-100, 0.05% Tween-20, 10% normal donkey serum, 1% BSA and 0.1% gelatin in PBS) for 1 h at room temperature and then overnight with rabbit anti-MAP2 (Invitrogen, PA5-17646; 1:100) primary antibody at 4 °C. After washing with PBS, coverslips were incubated with CF568-conjugated donkey anti-rabbit (Biotium, 20098; 1:500) for 1 h at room temperature. Another round of PBS washes was followed by incubation with Alexa Fluor 647-conjugated phalloidin (Invitrogen, A22287; 1:40) overnight at 4 °C. Next, coverslips were briefly washed in phosphate buffer (PB) and mounted on slides with ProLong Glass Antifade Mountant (Invitrogen, P36982). We used a Zeiss LSM 880 confocal microscope with an AiryScan GaAsP detector equipped with a PlanApochromat 63×/1.4 NA objective. We used the BP 495–550 + LP 570 AiryScan filter and Zen Black in super-resolution mode for image acquisition. Pinhole size was adapted accordingly, and frame size was set to optimal. Sensors were set to continuous adjustment across the imaging sessions to ensure optimal sensor alignment and signal detection. Raw data were processed into AiryScan images with the autofilter mode on using Zen Blue. Finally, image analysis was performed in ImageJ by experimenters blinded for treatment and genotype. Spines were quantified in 15-µm-long dendrite sections.

TrkB = target: T1, TrkB (Rattus norvegicus, UniProt Q63604); test: biochemical; type: binding
T1 construct: expressed in transfected cells; host or cells: HEK293T
T1 sequence (Q63604 32-821): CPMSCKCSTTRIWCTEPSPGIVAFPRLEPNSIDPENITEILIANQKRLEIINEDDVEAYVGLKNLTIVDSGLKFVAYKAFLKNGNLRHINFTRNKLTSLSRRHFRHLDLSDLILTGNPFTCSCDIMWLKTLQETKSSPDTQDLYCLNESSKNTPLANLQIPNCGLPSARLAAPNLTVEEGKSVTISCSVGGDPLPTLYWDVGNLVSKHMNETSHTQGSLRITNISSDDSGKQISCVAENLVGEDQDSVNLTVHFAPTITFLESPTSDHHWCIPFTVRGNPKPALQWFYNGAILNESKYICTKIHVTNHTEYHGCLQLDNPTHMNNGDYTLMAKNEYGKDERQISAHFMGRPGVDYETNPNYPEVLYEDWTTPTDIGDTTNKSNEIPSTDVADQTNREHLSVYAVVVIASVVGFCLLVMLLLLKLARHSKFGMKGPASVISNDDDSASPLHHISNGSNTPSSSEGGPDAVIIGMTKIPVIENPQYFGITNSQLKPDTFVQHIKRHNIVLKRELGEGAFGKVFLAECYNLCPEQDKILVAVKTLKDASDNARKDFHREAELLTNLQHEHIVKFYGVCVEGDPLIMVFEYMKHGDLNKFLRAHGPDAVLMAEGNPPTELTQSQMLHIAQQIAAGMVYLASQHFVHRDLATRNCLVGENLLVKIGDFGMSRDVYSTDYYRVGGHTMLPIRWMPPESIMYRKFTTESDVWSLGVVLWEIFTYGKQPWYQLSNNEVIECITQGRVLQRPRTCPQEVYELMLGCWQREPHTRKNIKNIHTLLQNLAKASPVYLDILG

[2] = system: dendritic arbor complexity of neuronal cultures; test: Dendritogenesis (Sholl analysis) in neuronal cultures (WT and Y433F^+/−); type: cell-based, mouse
Method: In a separate set of experiments to study the effects of extracellular BDNF and 5-HT2A activation, cultures were also pretreated for 10 min with TrkB.FC (200 ng ml^−1) or M100907 (100 nM), respectively. Similar to treatment with the psychedelics, TrkB.FC and M100907 pretreatments were administered in cumulative doses and remained in the medium for the rest of the experiment. At DIV7, neurons were pre-incubated for 1 h with […] MgCl2 to prevent excitotoxicity, then neurons were transfected for the heterologous expression of mCherry. To minimize any possible interference of the transfection protocol upon the drug effect, transfection was done in the morning while treatment with psychedelics was always added in the evening. Twenty-four hours after transfection, neurons were fixed with 4% PFA for 20 min at room temperature, washed in PBS-T, blocked for 30 min with 3% BSA in PBS-T and incubated with chicken anti-MAP2 (Abcam, ab5392; 1:5,000, 1 h, room temperature). Then, coverslips were washed in PBS-T and incubated with Alexa Fluor 647-conjugated antibody goat anti-chicken (Invitrogen, A-21449; 1:1,000, 1 h, room temperature). Next, coverslips were washed in PBS-T and MilliQ water, and mounted in Dako fluorescence mounting medium (Agilent, S302380-2). Ten optical sections with a Z-step of 1.3 μm were acquired using a Zeiss LSM 710 confocal microscope with a LCI Plan/Neofluar 25×/0.8 lmm Korr DIC M27 objective. In the mCherry channel, the center of the soma was manually assigned and the number of dendritic intersections at fixed distances (every 5 μm) from the soma was automatically counted using the Sholl analysis plugin of ImageJ.

[3] = Y433F+/-:vehicle minus Y433F+/-:treatment

Structure (SMILES): CCN(CC)C(=O)C1C=C2c3cccc4[nH]cc(c34)CC2N(C)C1 (stereo not shown) [LSD, lysergic acid diethylamide]
- 6e: Mean Diff. (Vehicle:Vehicle vs. treatment), Bonferroni's multiple comparisons test ([1]; LSD together with M100907): -7.65
- 6e: Mean (spinogenesis, spine density) ([1]; LSD together with M100907): 14.7
- 6e: Mean Diff. (Vehicle:Vehicle vs. treatment), Bonferroni's multiple comparisons test ([1]; LSD together with TrkB.FC): 0.25
- 6e: Mean (spinogenesis, spine density) ([1]; LSD together with TrkB.FC): 6.8
- 6d: Mean (spinogenesis, spine density) ([1]; WT neurons, vehicle mean 5.7): 13
- 6d: Mean Diff. (vehicle vs. treatment), Bonferroni's multiple comparisons test ([1]; WT:vehicle minus WT:treatment): -7.3
- 6d: Mean (spinogenesis, spine density) ([1]; Y433F+/- neurons, vehicle mean 6.55): 7.5
- 6d: Mean Diff. (vehicle vs. treatment), Bonferroni's multiple comparisons test [1, 3]: -0.95
- spine density ([1]; cultures from WT mice, 24 h, 100 nM): increase spine density
- 6e: Mean Diff. (Vehicle:Vehicle vs. treatment), Bonferroni's multiple comparisons test ([1]; substance alone (with vehicle)): -7.6
- 6e: Mean (spinogenesis, spine density) ([1]; substance alone (with vehicle)): 14.65
- Ki (TrkB): 3.38 ± 1.39 nM
- Bmax (best-fit, 1b) (TrkB; competition with ^3H-LSD): 104.9
- h (best-fit, 1b) (TrkB; competition with ^3H-LSD): -0.5005
- 6g: Mean (dendritogenesis, Sholl analysis) ([2]; WT neurons, vehicle mean 32.96): 75.11
- 6g: Mean Diff. (vehicle vs. treatment), Bonferroni's multiple comparisons test ([2]; WT:vehicle minus WT:treatment): -42.15
- 6g: Mean (dendritogenesis, Sholl analysis) ([2]; Y433F+/- neurons, vehicle mean 44.44): 47.24
- 6g: Mean Diff. (vehicle vs. treatment), Bonferroni's multiple comparisons test [2, 3]: -2.791
- dendritic arbor complexity ([2]; cultures from WT mice): enhance dendritic arbor complexity
- dendritic arbor complexity ([2]; cultures from Y433F^+/− mice): not Y433F^+/− mice
- dendritic arbor complexity, Mean Diff. (Vehicle:vehicle vs. group) ([2]; fig 6i, Bonferroni's multiple comparisons test): -41.23
- dendritic arbor complexity, group mean (Mean 2) ([2]; fig 6i, treatment:pretreatment groups, Vehicle:vehicle mean 69.72): 110.9
- Sholl analysis, Mean at distance from soma ([2]; fig 6j, distance from soma 10 µm): 8.895
- Sholl analysis, Mean at distance from soma ([2]; fig 6j, distance from soma 15 µm): 10.2632
- Sholl analysis, Mean at distance from soma ([2]; fig 6j, distance from soma 20 µm): 10.421
- Sholl analysis, Mean at distance from soma ([2]; fig 6j, distance from soma 25 µm): 9.211
- Sholl analysis, Mean at distance from soma ([2]; fig 6j, distance from soma 30 µm): 8.842
- Sholl analysis, Mean at distance from soma ([2]; fig 6j, distance from soma 35 µm): 8.316
- Sholl analysis, Mean at distance from soma ([2]; fig 6j, distance from soma 40 µm): 6.789
- Sholl analysis, Mean at distance from soma ([2]; fig 6j, distance from soma 45 µm): 6.368
- Sholl analysis, Mean at distance from soma ([2]; fig 6j, distance from soma 50 µm): 6.368
- Sholl analysis, Mean at distance from soma ([2]; fig 6j, distance from soma 55 µm): 4.737
- Sholl analysis, Mean at distance from soma ([2]; fig 6j, distance from soma 60 µm): 4.526
- Sholl analysis, Mean at distance from soma ([2]; fig 6j, distance from soma 65 µm): 3.895
- Sholl analysis, Mean at distance from soma ([2]; fig 6j, distance from soma 70 µm): 3.526
- Sholl analysis, Mean at distance from soma ([2]; fig 6j, distance from soma 75 µm): 3.158
- Sholl analysis, Mean at distance from soma ([2]; fig 6j, distance from soma 80 µm): 3.158
- Sholl analysis, Mean at distance from soma ([2]; fig 6j, distance from soma 85 µm): 3.316
- Sholl analysis, Mean at distance from soma ([2]; fig 6j, distance from soma 90 µm): 3.105
- Sholl analysis, Mean at distance from soma ([2]; fig 6j, distance from soma 95 µm): 3.211
- Sholl analysis, Mean at distance from soma ([2]; fig 6j, distance from soma 100 µm): 2.842
- Sholl analysis, Mean at distance from soma ([2]; fig 6h, distance from soma 25 µm): 4.059
- Sholl analysis, Mean at distance from soma ([2]; fig 6h, distance from soma 30 µm): 3.529
- Sholl analysis, Mean at distance from soma ([2]; fig 6h, distance from soma 35 µm): 3
- Sholl analysis, Mean at distance from soma ([2]; fig 6h, distance from soma 40 µm): 3.059
- Sholl analysis, Mean at distance from soma ([2]; fig 6h, distance from soma 45 µm): 2.412
- Sholl analysis, Mean at distance from soma ([2]; fig 6h, distance from soma 50 µm): 2.471
- Sholl analysis, Mean at distance from soma ([2]; fig 6h, distance from soma 55 µm): 2.294
- Sholl analysis, Mean at distance from soma ([2]; fig 6h, distance from soma 60 µm): 1.882
- Sholl analysis, Mean at distance from soma ([2]; fig 6h, distance from soma 65 µm): 1.765
- Sholl analysis, Mean at distance from soma ([2]; fig 6h, distance from soma 70 µm): 1.294
- Sholl analysis, Mean at distance from soma ([2]; fig 6h, distance from soma 75 µm): 1.353
- Sholl analysis, Mean at distance from soma ([2]; fig 6h, distance from soma 80 µm): 1.353
- Sholl analysis, Mean at distance from soma ([2]; fig 6h, distance from soma 85 µm): 1
- Sholl analysis, Mean at distance from soma ([2]; fig 6h, distance from soma 90 µm): 1.059
- Sholl analysis, Mean at distance from soma ([2]; fig 6h, distance from soma 95 µm): 1
- Sholl analysis, Mean at distance from soma ([2]; fig 6h, distance from soma 100 µm): 0.7059
- 6h: Mean (Sholl analysis) ([2]; first 6h table (N as WT), distance from soma 10 µm): 6.789
- 6h: Mean (Sholl analysis) ([2]; first 6h table (N as WT), distance from soma 15 µm): 8.684
- 6h: Mean (Sholl analysis) ([2]; first 6h table (N as WT), distance from soma 20 µm): 8.526
- 6h: Mean (Sholl analysis) ([2]; first 6h table (N as WT), distance from soma 25 µm): 6.474
- 6h: Mean (Sholl analysis) ([2]; first 6h table (N as WT), distance from soma 30 µm): 6
- 6h: Mean (Sholl analysis) ([2]; first 6h table (N as WT), distance from soma 35 µm): 5.211
- 6h: Mean (Sholl analysis) ([2]; first 6h table (N as WT), distance from soma 40 µm): 3.632
- 6h: Mean (Sholl analysis) ([2]; first 6h table (N as WT), distance from soma 45 µm): 3.474
- 6h: Mean (Sholl analysis) ([2]; first 6h table (N as WT), distance from soma 50 µm): 3
- 6h: Mean (Sholl analysis) ([2]; first 6h table (N as WT), distance from soma 55 µm): 2.684
- 6h: Mean (Sholl analysis) ([2]; first 6h table (N as WT), distance from soma 60 µm): 3.105
- 6h: Mean (Sholl analysis) ([2]; first 6h table (N as WT), distance from soma 65 µm): 2.579
- 6h: Mean (Sholl analysis) ([2]; first 6h table (N as WT), distance from soma 70 µm): 2.421
- 6h: Mean (Sholl analysis) ([2]; first 6h table (N as WT), distance from soma 75 µm): 2.263
- 6h: Mean (Sholl analysis) ([2]; first 6h table (N as WT), distance from soma 80 µm): 2.421
- 6h: Mean (Sholl analysis) ([2]; first 6h table (N as WT), distance from soma 85 µm): 2
- 6h: Mean (Sholl analysis) ([2]; first 6h table (N as WT), distance from soma 90 µm): 2.421
- 6h: Mean (Sholl analysis) ([2]; first 6h table (N as WT), distance from soma 95 µm): 1.632
- 6h: Mean (Sholl analysis) ([2]; first 6h table (N as WT), distance from soma 100 µm): 1.789
- 6h: Mean (Sholl analysis) ([2]; second 6h table (N as Y433F), distance from soma 10 µm): 5.294
- 6h: Mean (Sholl analysis) ([2]; second 6h table (N as Y433F), distance from soma 15 µm): 4.941
- 6h: Mean (Sholl analysis) ([2]; second 6h table (N as Y433F), distance from soma 20 µm): 4.765
